One assay concerns adipocytes. Nature of the assay: Apoptotic events in adipocytes from explanted tissues. It counts as cell-based, human. Particulars: adipocytes maintained in the presence of coenzyme Q10. Here is the method: Isolation of Adipocytes from Adipose Tissue
Modification of protocol described by Flower et al., Cytokine 21 (2003) 32-37.
For isolation, adipocyte tissue was quickly thawed, dissected with scissors into fine fragments in-digest solution consisting of Hank's buffer, supplemented with 2 mg/ml of collagenase (Type II, Sigma) and 1.5% BSA, and incubated at 37° C. for 1 hour in shaker-heater bath. The ratio of digest solution to adipose tissue was 4:1. The tissue digest was filtered through 200 μm Nylon mesh fabric in order to remove non digested tissue fragments. The adipocyte-containing layer and free oil were separated from the resulting stromovascular cell suspension by repeated centrifugation at 250×g for 5 minutes at 4° C. All the cells retrieved were morphologically typical mature adipocytes.
Detection of Apoptotic Adipocytes by Hoechst Staining […]
(§1) The stained cells (10^4) were affixed to polylysine-treated glass slides by gentle cyto-centrifugation or by spreading the cellular film directly on the surface, of the glass slide and mounted. Nuclear staining was examined under Nikon fluorescence microscope (20× and 40× magnification) equipped with camera. The results are expressed as the percentage of apoptotic cells (number of apoptotic cells/100 counted cells) in 10 random fields, performed by 3 independent observers.

For another assay, the system named is cytochrome C. Nature of the assay: Dosage of cytoplasmic cytochrome C in adipocytes by Western blotting. The assay is classed as cell-based, human. Particulars: liposucted adipocytes, Western blot (FIG. 1). Here is the method: (§2) Quantification of Apoptotic Factors (cytocrome c, caspase 3 and 9)
(§3) Adipocytes have been collected both manually using a “Luer-lock” 10 cc. syringe following Coleman's technique, and by a liposuctor with a negative pressure adjusted to maintain −680 mmHg. After the collection, half of the sample was treated with coenzyme Q10 dissolved in Lutrol (or another amphipathic molecule) at 10 μM concentration, as reported in previous works (1, 3). The other half of collected sample was treated with Lutrol (or another amphipathic molecule) alone. Both samples were then -centrifuged. The interphase and cell pellet were collected, following Coleman's technique (6) and maintained in liquid Nitrogen.
(§4) Preparation of protein cell lysates (6) is a modification of the -method described by Rioux (7).
Liposucted cell suspensions were centrifuged at 800 g for 10 minutes. […] After removing the fat layer and the pellet of cellular debris, the protein content was quantified with Bradford reagent by spectrophotometry. Protein lysates (30 μg/lane) were separated by SDS-PAGE (10 and 15%) and analysed by Western blot analysis with specific antibodies.
(§5) Quantification of apoptotic factors was performed by densitometry.

Assay [1] has as its system mitochondrial Permeability Transition Pore (mPTP). The note with it: in response to any apoptotic stimulus; cited from earlier work.
The test system of a further assay is caspase 3. Nature of the assay: Quantification of caspase 3 in adipocytes by Western blotting and densitometry. It counts as cell-based, human. The protocol:
as §2, §3, §4
(§6) Liposucted cell suspensions were centrifuged at 800 g for 10 minutes. 1 ml of lysis buffer (0.75 M NaCl, 10 mM HEPES, 1 mM EDTA, 1% Triton-X-100) containing a protease inhibitor mixture (final concentrations 1 μg/ml leupeptin, 10 μg/ml benzamidine, 1 μg/ml chymostatin, 1 μg/ml pepstatin A and 100 μg/ml PMSF) was added and the cell pellet was sonicated two times successively (20 sec, 100 W) to obtain whole cellular lysate. The lysate was further cleared by centrifugation at 10.000 g for 30 min in mini centrifuge. After removing the fat layer and the pellet of cellular debris, the protein content was quantified with Bradford reagent by spectrophotometry. Protein lysates (30 μg/lane) were separated by SDS-PAGE (10 and 15%) and analysed by Western blot analysis with specific antibodies.
as §5
A general note: Immunoblotting shows a protein as a band on a membrane.

A further assay has as its system cultured keratocytes. The note with it: excimer laser irradiation; cited from earlier work.
Another assay deals with skin grafts. Nature of the assay: Apoptotic cells in skin grafts (Hoechst staining / in situ TUNEL). The assay is classed as cell-based, human. The protocol:
FIG. 4. Appearance of skin grafts untreated or treated with coenzyme Q10 and stained with in situ TUNEL.
FIG. 5. Number of apoptotic cells in skin grafts untreated or treated with coenzyme Q10 and stained with in situ TUNEL. Values are expressed as percentage of total cells (living+dead cells).
Isolated adipocytes in suspension were fixed with 4% paraformaldehyde for 20 min at RT (room temperature), washed 3 times with PBS and permeabilized for 5 min with 0.25% Triton X-100 in PBS solution. Washes with PBS were repeated 3 times for 5 min each time and the cells were stained with Hoechst 33258 (Sigma) nuclear dye for 30 min at 37° C. followed by washing in PBS 3 times for 5 min.
as §1

Another assay relates to caspase 9. Nature of the assay: Quantification of caspase 9 in adipocytes by Western blotting and densitometry. The assay is classed as cell-based, human. The protocol:
as §2, §3, §4, §6, §5

Setting [2] is: adipocytes collected manually (Luer-lock syringe) and by liposuctor, 10 μM in Lutrol, vs untreated samples.
[3] abbreviates: adipocytes collected with Coleman's technique, added prior to centrifugation and purification.
The mark [4] stands for this setting: cells from explanted tissues after ex vivo treatments, in the presence of coenzyme Q10.

SMILES strings stand for the structures.

With `COC1=C(OC)C(=O)C(C/C=C(\C)CC/C=C(\C)CC/C=C(\C)CC/C=C(\C)CC/C=C(\C)CC/C=C(\C)CC/C=C(\C)CC/C=C(\C)CC/C=C(\C)CCC=C(C)C)=C(C)C1=O` [coenzyme Q10, 2.3-dimethoxy-5-methyl-6-multiprenyl-1.4-benzoquinone], the “number of apoptotic events” value in the assay with adipocytes and in the assay on skin grafts (cutaneous cells maintained in the presence of coenzyme Q10) was “significantly reduced” in each case. Also, the “translocation of cytochrome C to cytosol” value with cytochrome C is “significantly inhibited”. In addition, in assay [1], the “disruption of mitochondrial transmembrane electrochemical gradient and opening of mPTP” value is “directly inhibits”. Besides, the “reduction of caspase 3 activity compared to controls (FIG. 2)” value with caspase 3 (setting [2]) is reported as about 50%. Also, in the assay on caspase 3 (setting [3]), the “caspase 3 activity evaluated by Western blotting” value was “dramatically reduced”. The “reduction of caspase 3 level” value in the assay with caspase 3 (setting [4]) was “more than 50%”. In addition, the apoptosis result in the assay with cultured keratocytes was “able to inhibit apoptosis”. For the same compound, in the assay with skin grafts (skin graft, glass slides of treated vs non treated cells (FIG. 4)), the “percentage of apoptotic cells” value is given as “dramatically lower”. Moreover, the cell morphology result in the assay on skin grafts (skin graft, treated cells, non treated cells showed nuclear condensation and fragmentation) is given as “normal morphology of a living cell”. Further, the “number of apoptotic cells” value with skin grafts (skin grafts immersed in coenzyme Q10-saline solution (FIG. 5)) is on record as “drastically decreased”. The “reduction of caspase 9 activity compared to controls (FIG. 2)” value with caspase 9 (setting [2]) is given as about 50%. In the assay with caspase 9 (setting [3]), the “caspase 9 activity evaluated by Western blotting” value is “dramatically reduced”. For the same compound, the “reduction of caspase 9 level” value in the assay on caspase 9 (setting [4]) is reported as “more than 50%”.

These data come from patent publication US20060127384A1, “Coenzyme Q10 as antiapoptotic agent” (priority 2004, published 2006).
